Results: PubChem BioAssay AID1508591

Details: rat; liver microsomes; pH 7.4; 15.0 min; 1.0 µM

Row | SMILES | half-life
1 | COc1cccc(-c2cn3c(n2)sc2cc(C(=O)NCCc4ccc(OC)c(OC)c4)ccc23)c1 | 2.26 min
2 | CC(O)(C#Cc1ccc2c(c1)N(c1nc(N)ncc1Cl)CC2)c1nccs1 (stereo unspecified) | 7.75 min
3 | CC(=O)Nc1cc(-c2nc(Nc3ccc(F)c(F)c3)c3ccccc3n2)ccn1 | 12 min
4 | Cc1ccc(S(=O)(=O)Nc2ccccc2C(=O)Nc2ccc(-c3ccccc3)cc2)cc1 | 7.3 min
5 | O=[N+]([O-])c1cccnc1N/N=C/c1ccccc1O | 7.7 min
6 | Cc1cc(-c2nc(Nc3ccc(F)c(F)c3)c3ccccc3n2)cc(C)n1 | > 30 min
7 | CCc1cccc(-n2nnc(-c3nsc(NC(=O)c4cccc(OC)c4)n3)c2C)c1 | 12.8 min
8 | CCC(=O)NC(c1ccco1)c1cc(Cl)c2cccnc2c1O (stereo unspecified) | 3.3 min
9 | O=S(=O)(Nc1nccs1)c1ccc(NCc2cc(Cl)ccc2O)cc1 | 11 min
10 | COC(=O)c1cccc(NC(=O)c2cnc(-c3ccc(F)cc3)nc2-c2ccncc2)c1 | 9.09 min
11 | COc1nccc(-c2nc(Nc3ccc(F)c(F)c3)c3ccccc3n2)c1Cl | > 30 min
12 | NC(=O)c1sc2nc3c(c(-c4cccs4)c2c1N)CCCC3 | 2 min
13 | O=C(Nc1ccc(Br)cc1)c1ccc(F)c(S(=O)(=O)NC2CCCCCC2)c1 | 3.66 min
14 | Fc1cccc(CN2CCNc3cc(Nc4ccccc4)ncc3C2)c1 | 1.14 min
15 | O=C(CNC12CC3CC(CC(C3)C1)C2)c1ccc(Cl)cc1 | 2.2 min
16 | c1ccc2c(Nc3nccs3)nc(-c3ccncc3)nc2c1 | 6.4 min
17 | CCOc1ccc(CCNC(=O)c2cc3c(s2)CCC3)cc1OCC | 1.6 min
18 | Cc1ccc(-c2cc(C(=O)O)c3ccccc3n2)cc1 | 22.4 min
19 | O=C(c1csnn1)N1CCC2(CCCN(C(c3ccccc3)c3ccccc3)C2)CC1 | 2.1 min
20 | Cc1ccc(CSCc2ccc(C(=O)NC3CC3)o2)cc1 | 1.7 min
21 | COc1cccc(CN2CCCC(c3nc(-c4ccncc4)ncc3-c3ccccc3)C2)c1O (stereo unspecified) | 5.95 min

Row | SMILES | half-life
22 | CNc1ncc(-c2cccc3ccccc23)o1 | 9.9 min
23 | COc1ccc(-n2nc(C3CCCN(C(=O)Cc4ccc(F)cc4)C3)[nH]c2=O)cc1 (stereo unspecified) | 8.48 min
24 | Fc1ccc(CNc2nc(-c3ccncc3)nc3ccccc23)cc1F | 11 min
25 | CCN1CCCC1CNCc1ccccc1 (stereo unspecified) | 2.5 min
26 | CN1CCCC1CCOC(c1cc2nccc(C(=O)O)c2[nH]1)c1ccccc1Cl (stereo unspecified) | > 30 min
27 | CCN(CC)c1ccc(Nc2nc(Cl)ncc2Br)cc1 | 6.24 min
28 | CCOC(=O)c1nn(-c2ccccc2)c(=O)c2c(N)scc12 | 2.12 min
29 | Cc1ccc(CC(=O)Nc2nc(-c3ccc4c(c3)CCN4C(=O)c3ccccc3C)c(C)s2)cc1C | 19 min
30 | CN(C(=O)c1cn2c(-c3ccc(C(F)(F)F)cc3)cnc2cn1)c1ccc(C#N)cc1 | > 30 min
31 | O=C(Nc1nc(-c2ccccc2)cs1)c1ccncc1NS(=O)(=O)c1ccc(N2CCCC2=O)cc1 | 1.6 min
32 | COc1cc2nc(N3CCCC3)nc(NCCCCCN3CCCC3)c2cc1OC | > 30 min
33 | Cc1cnc(-c2ccccc2C(C)C)nc1NCC1CCN(c2cccnc2)CC1 | 3.9 min
34 | CC(=O)c1c(C)[nH]c(C(=O)Nc2cccc([S+](=O)([O-])Nc3ccccn3)c2)c1C | > 30 min
35 | CCOc1ccc(CCNC(=O)c2cc3sccc3n2Cc2ccccc2)c(F)c1OCC | 1.8 min
36 | CCc1ccc(NC(=O)[C@H](Cc2c[nH]c3ccccc23)NC(=O)[C@@H]2Cc3ccccc3CN2)cc1 | 2.32 min
37 | CC(=O)O[C@H]1CC[C@]2(C)C(=CC[C@H]3[C@H]4C[C@H]5O[C@]6(CC[C@H](C)CN6)[C@H](C)[C@@H]5[C@]4(C)CC[C@@H]32)C1 | 1.58 min
38 | CCCOC(=O)c1ccc(Oc2c(-c3ccc(O)cc3O)n[nH]c2C)cc1 | 3.04 min
39 | O=C(Nc1nc(-c2ccccn2)cs1)c1cccc(S(=O)(=O)N2CCOCC2)c1 | 8.47 min
40 | COc1cccc(CNc2ccc(S(=O)(=O)Nc3ccc(C4CCNCC4)cc3)cc2)c1O | 29 min
41 | CC(=O)c1c(C)[nH]c(C(=O)Nc2cccc([S+](=O)([O-])Nc3ccncc3)c2)c1C | > 30 min
